# Laboratory results from US20240358693A1, “METHODS OF TREATING PAIN” (Aisa Pharma, Inc., priority 2023, published 2024).
# Test system: participants with SSc-RP
# Test: Scleroderma Health Assessment Questionnaire (SHAQ): disability indices and visual analog scales
# Assay type: in vivo, human
# From the text: The standard, validated, patient reported outcome measures tool for SSc patients, the Scleroderma Health Assessment Questionnaire (SHAQ), will be used to assess the participant qualify of life. Details are attached in the Appendix. The participant quality of life will be scored, and a disability index calculated for each questionnaire completed by the patient at Screening and each in-clinic visit. The absolute change in participant quality of life from baseline to the end of each dosing period will be calculated similar to frequency data as before.
# The SHAQ includes a Raynaud's VAS, which will be reported at screening and each in-clinic visit. The absolute change in Raynaud-VAS, assessed by the participants response to the SHAQ question ‘In the past 7 days, how much have your Raynaud's interfered with your daily activities?’ at baseline and the end of each dosing period will be calculated similar to frequency data as before.
# The SHAQ is used to calculate a Disability Index to assess the participant qualify of life. The eight categories assessed by the Disability Index are 1) dressing and grooming, 2) arising, 3) eating, 4) walking, 5) hygiene, 6) reach, 7) grip, and 8) common daily activities. For each of these categories, patients report the amount of difficulty they have in performing two or three specific activities.
# There are four possible responses for the Disability Index questions: • Without any difficulty=0 • With some difficulty=1 • With much difficulty=2 • Unable to do=3. • The highest score reported by the patient for any component question of the eight categories determines the score for that category. • If a component question is left blank or the response is too ambiguous to assign a score, then the score for that category is determined by the remaining completed question(s). • If all component questions are blank or if more than one answer is given, then follow up with the respondent is required. • If the respondent's mark is between the response columns, then move it to the closest one. If it's directly between the two, move it to the higher one.
# Each of the disability items on the SHAQ has a companion aids/devices variable that is used to record what type(s) of assistance, if any, the participant uses for his/her usual activities. These variables (see below) are coded as follows: • 0=No assistance is needed. • 1=A special device is used by the patient in his/her usual activities. • 2=The patient usually needs help from another person. • 3=The patient usually needs BOTH a special device AND help from another person.
# The scoring variables and scoring rules permit the computation of two disability indices, the Standard Disability Index and the Alternative Disability Index.
# This question results in a new set of category scores that are computed by adjusting the score for each category, if necessary, based on the patient's use of an aid or device or assistance for that category. If either devices and/or help from another person are checked for a category, the score is set to “2”, unless the score is already “3” (i.e., scores of “0” or “1” are increased to “2”). For example, if the highest score for the dressing category is “1”, and the patient says they use a device for dressing, the computed category score would be “2”. The sum of the computed categories scores is then calculated and divided by the number of categories answered. This gives a score in the 0 to 3 range.
# The aid and device variables are not used to calculate the alternative disability index; it is calculated by adding the scores for each of the categories and dividing by the number of categories answered. This gives a score in the 0 to 3 range.
# The standard, validated, patient reported outcome measures tool for SSc patients, the SHAQ, was collected at the time points specified in the study schedules (FIG. 2 and FIGS. 4A and 4B) to assess the participant's quality of life. The SHAQ included a Raynaud's VAS that will also be reported separately.
# [1] = Any Cilnidipine (N = 14), Day 12, Modified ITT, SSc patients, Part A
# [2] = Any Cilnidipine (N = 14), Day 12, Modified ITT, SSc patients, Part A, Subject 01-110 Day 12 score excluded
# [3] = Any Cilnidipine (N = 17), Day 12, PP Population Part A, SSc patients
# [4] = Any Cilnidipine (N = 17), PP Population Part A, SSc patients
# [5] = Baseline, Cilnidipine 10 mg (N = 4), Patients with Diagnosis of SSc, PP Population Part A
structure (smiles),measurement,setting,value
"COCCOC(=O)C1=C(C)NC(C)=C(C(=O)OC/C=C/c2ccccc2)C1c1cccc([N+](=O)[O-])c1 (stereo not shown) [Cilnidipine, cilnidipine]",SHAQ VAS- Breathing problems Change,20 mg,−0.83
same,SHAQ VAS- Raynaud's Change,20 mg,−1.27
same,SHAQ VAS- overall disease severity Change,20 mg,−1.63
same,SHAQ VAS-Pain,20 mg,−1.1
same,"SHAQ Alternative Disability Index: Change from Baseline, Mean",[1],−0.016
same,"SHAQ Alternative Disability Index: Change from Baseline, Median",[1],−0.031
same,"SHAQ Alternative Disability Index: In-Clinic Visit (Day 12), Mean",[1],0.430
same,"SHAQ Alternative Disability Index: In-Clinic Visit (Day 12), Median",[1],0.250
same,"SHAQ Alternative Disability Index: Percent Change from Baseline, Mean",[1],17.01%
same,"SHAQ Alternative Disability Index: Percent Change from Baseline, Median",[1],−11.11%
same,"SHAQ Standard Disability Index: Change from Baseline, Mean",[1],−0.050
same,"SHAQ Standard Disability Index: Change from Baseline, Median",[1],0.000
same,"SHAQ Standard Disability Index: In-Clinic Visit (Day 12), Mean",[1],0.521
same,"SHAQ Standard Disability Index: In-Clinic Visit (Day 12), Median",[1],0.250
same,"SHAQ Standard Disability Index: Percent Change from Baseline, Mean",[1],2.96%
same,"SHAQ Standard Disability Index: Percent Change from Baseline, Median",[1],0.00%
same,"SHAQ Visual Analogue Scale - Finger Ulcers: Change from Baseline, Mean",[1],−0.623
same,"SHAQ Visual Analogue Scale - Finger Ulcers: Change from Baseline, Median",[1],−0.100
same,"SHAQ Visual Analogue Scale - Finger Ulcers: In-Clinic Visit (Day 12), Mean",[1],0.900
same,"SHAQ Visual Analogue Scale - Finger Ulcers: In-Clinic Visit (Day 12), Median",[1],0.200
same,"SHAQ Visual Analogue Scale - Finger Ulcers: Percent Change from Baseline, Mean",[1],−33.91%
same,"SHAQ Visual Analogue Scale - Finger Ulcers: Percent Change from Baseline, Median",[1],−36.11%
same,"SHAQ Visual Analogue Scale - Intestinal Problems: Change from Baseline, Mean",[1],−0.404
same,"SHAQ Visual Analogue Scale - Intestinal Problems: Change from Baseline, Median",[1],0.000
same,"SHAQ Visual Analogue Scale - Intestinal Problems: In-Clinic Visit (Day 12), Mean",[1],1.225
same,"SHAQ Visual Analogue Scale - Intestinal Problems: In-Clinic Visit (Day 12), Median",[1],0.650
same,"SHAQ Visual Analogue Scale - Intestinal Problems: Percent Change from Baseline, Mean",[1],0.28%
same,"SHAQ Visual Analogue Scale - Intestinal Problems: Percent Change from Baseline, Median",[1],−10.00%
same,"SHAQ Visual Analogue Scale - Overall Disease Severity: Change from Baseline, Mean",[1],−0.904
same,"SHAQ Visual Analogue Scale - Overall Disease Severity: Change from Baseline, Median",[1],−1.300
same,"SHAQ Visual Analogue Scale - Overall Disease Severity: In-Clinic Visit (Day 12), Mean",[1],2.146
same,"SHAQ Visual Analogue Scale - Overall Disease Severity: In-Clinic Visit (Day 12), Median",[1],1.300
same,"SHAQ Visual Analogue Scale - Overall Disease Severity: Percent Change from Baseline, Mean",[1],−30.92%
same,"SHAQ Visual Analogue Scale - Overall Disease Severity: Percent Change from Baseline, Median",[1],−41.67%
same,"SHAQ Visual Analogue Scale - Pain: Change from Baseline, Mean",[1],−0.492
same,"SHAQ Visual Analogue Scale - Pain: Change from Baseline, Median",[1],−0.500
same,"SHAQ Visual Analogue Scale - Pain: In-Clinic Visit (Day 12), Mean",[1],2.236
same,"SHAQ Visual Analogue Scale - Pain: In-Clinic Visit (Day 12), Median",[1],2.150
same,"SHAQ Visual Analogue Scale - Pain: Percent Change from Baseline, Mean",[1],−23.84%
same,"SHAQ Visual Analogue Scale - Pain: Percent Change from Baseline, Median",[1],−21.87%
same,"SHAQ Visual Analogue Scale - Raynaud's: Change from Baseline, Mean",[1],−0.538
same,"SHAQ Visual Analogue Scale - Raynaud's: Change from Baseline, Median",[1],−0.300
same,"SHAQ Visual Analogue Scale - Raynaud's: In-Clinic Visit (Day 12), Mean",[1],1.798
same,"SHAQ Visual Analogue Scale - Raynaud's: In-Clinic Visit (Day 12), Median",[1],1.250
same,"SHAQ Visual Analogue Scale - Raynaud's: Percent Change from Baseline, Mean",[1],−18.26%
same,"SHAQ Visual Analogue Scale - Raynaud's: Percent Change from Baseline, Median",[1],−33.33%
same,"SHAQ Visual Analogue Scale - Breathing Problems: Change from Baseline, Mean",[2],−0.015
same,"SHAQ Visual Analogue Scale - Breathing Problems: Change from Baseline, Median",[2],0.000
same,"SHAQ Visual Analogue Scale - Breathing Problems: In-Clinic Visit (Day 12), Mean",[2],1.515
same,"SHAQ Visual Analogue Scale - Breathing Problems: In-Clinic Visit (Day 12), Median",[2],0.400
same,"SHAQ Visual Analogue Scale - Breathing Problems: Percent Change from Baseline, Mean",[2],51.98%
same,"SHAQ Visual Analogue Scale - Breathing Problems: Percent Change from Baseline, Median",[2],−21.33%
same,"SHAQ Standard Disability Index, Change from Baseline, Mean",[3],−0.041
same,"SHAQ Standard Disability Index, Change from Baseline, Median",[3],0.000
same,"SHAQ Standard Disability Index, Percent Change from Baseline, Mean",[3],3.27%
same,"SHAQ Standard Disability Index, Percent Change from Baseline, Median",[3],0.00%
same,"SHAQ Standard Disability Index, In-Clinic Visit (Day 12), Mean",[4],0.539
same,"SHAQ Standard Disability Index, In-Clinic Visit (Day 12), Median",[4],0.250
same,"SHAQ Alternative Disability Index, Mean",[5],0.500
same,"SHAQ Alternative Disability Index, Median",[5],0.438
same,"SHAQ Standard Disability Index, Mean",[5],0.656
